According to US4780476A, “Azoniaspironortropanol esters as asthma therapeutics and broncholytics” (Madaus GmbH & Co., priority 1985, dated 1988):

Test system: T1, isolated tracheal spirals of the guinea pig (Cavia porcellus)
T1 construct: the whole of the trachea is roughly freed beginning from the larynx up to the tracheal bifurcation, removed and transferred; from tissue; host or cells: isolated trachea (spiral strips) of male Pirbright white guinea pigs
Assay: anticholinergic effectiveness on isolated tracheal spirals (antagonism against acetyl-β-methylcholine chloride)
Details: ratio of maximum agonist effect in presence (EAmB) and absence (EAm) of antagonist
Description: A model for this is the measurement of the anticholinergic effectiveness on isolated tracheal spirals of the guinea pig.
The test substance used was 3α-benziloyloxynortropane-8-spiro-1'-pyrrolidinium chloride (trospium chloride; MP 194), ipratropium bromide being used as comparison substance.
There is to be determined the anticholinergic effectiveness of MP 194 in comparison with the reference substance ipratropium bromide on the isolated tracheal spirals of the guinea pig.
3.1.1. animal species: guinea pig
3.1.2. animal strain: Pirbright white
3.3.1. test substance (test antagonist) trospium chloride (MP 194) (M.W. 428)
3.3.2. reference substance (reference antagonist) ipratropium bromide (Atrovent) (M.W. 412.4)
3.3.3.1. acetyl-β-methylcholine chloride (Sigma) (M.W. 195.7)
The guinea pig is stunned by a blow on the neck. Subsequently, the whole of the trachea is roughly freed beginning from the larynx up to the tracheal bifurcation, removed and transferred to tempered (37° C.) and carbogenized tyrode solution. After surrounding connective tissue has been removed as far as possible, the preparation is cut up spirally by means of fine scissors at an angle of about 45° and separated into two equal sized sections. After weighing, both preparations are provided proximally and distally with a silk thread. One thread serves for fixing the preparation by means of a loop to the bottom of the bath and the other is connected via a hook with the transducer above the bath vessel.
Subsequently, the preparations, corresponding to the calibration, are prestressed with about 80 mN and equilibrated from 50-100 minutes. During the equilibration phase, the nutrient solution in the bath vessels is renewed in 15 minute intervals. As soon as the resting muscle tonus of the preparation has stabilized, there takes place the cumulative addition of the agonist, whereby the addition of the next highest concentration first takes place when no further increase of contraction is recognisable (plateau). When the maximum contraction height of the preparation is achieved, the cumulative agonist addition is ended and the preparation is rinsed. After a further equilibration phase (v. supra), the cumulative addition of the agonist is repeated but this time in the presence of the test or reference antagonist.
3.6.1. The perfusion part consists of an L-shaped organ bath in the hollow space of which (longer limb) runs a double glass spiral through which the nutrient solution is passed into the actual bath vessel (28 ml. content; shorter limb). This bath vessel is divided into two chambers which are, however, connected together by two transverse connections. […] The inlet chambers as well as the feeding glass spirals are tempered from the outside to 37° C. by a separate liquid circulation. This tempering takes place with the help of a "Colora" ultra-thermostat type K (Colora Messtechnik GmbH, Dusseldorf, Germany) which serves as thermostat and pump. In order, in case of need, always to have available ready-for-use nutrient solution, above the organ bath is provided a double-walled storage container in which the nutrient solution is also tempered and carbogenised. This is connected via a glass stopcock and a polypropylene tube with double glass spiral in the interior of the organ bath.
3.6.2. The measurement and recording part includes a transducer (Statham-Universal-Zelle UC-2; Hugo Sachs Elektronic KG, Hugstetten, Germany). By means of a hanging-in weight, a force of 40 mN is produced on the transducer which passes as electrical signal via a connecting cable to a bridge amplifier. The amplification is smoothly so regulated that the force provided corresponds to a constant value on the scale or an analogous value on the millimeter paper of the recorder (dependent upon the amplification; see below). After fixing the organ, the preparation is prestressed to the doubled mark, corresponding to 80 mN. […]

T1 sequence (H0W1Z3 1-590): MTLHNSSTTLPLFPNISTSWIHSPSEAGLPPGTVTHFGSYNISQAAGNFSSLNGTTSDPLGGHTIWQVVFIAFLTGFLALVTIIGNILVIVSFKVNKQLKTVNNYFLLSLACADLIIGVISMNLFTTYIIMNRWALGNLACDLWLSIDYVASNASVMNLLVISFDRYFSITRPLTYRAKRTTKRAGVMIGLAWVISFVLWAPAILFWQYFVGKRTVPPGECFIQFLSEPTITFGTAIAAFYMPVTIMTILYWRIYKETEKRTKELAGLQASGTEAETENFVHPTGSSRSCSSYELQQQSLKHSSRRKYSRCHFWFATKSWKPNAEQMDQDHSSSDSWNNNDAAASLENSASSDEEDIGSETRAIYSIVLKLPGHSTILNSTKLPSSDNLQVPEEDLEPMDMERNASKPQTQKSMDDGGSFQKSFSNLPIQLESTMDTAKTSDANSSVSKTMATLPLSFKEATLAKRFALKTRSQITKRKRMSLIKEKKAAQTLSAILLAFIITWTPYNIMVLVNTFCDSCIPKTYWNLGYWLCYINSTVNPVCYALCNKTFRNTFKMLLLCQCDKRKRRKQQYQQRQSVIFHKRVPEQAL

## O=C(O[C@H]1C[C@H]2CC[C@@H](C1)[N+]21CCCC1)C(O)(c1ccccc1)c1ccccc1 [trospium chloride, 3α-benziloyloxynortropane-8-spiro-1'-pyrrolidinium chloride]
  EAmB/EAm ± s: 1.09 ± 0.22
